Earlier results as cited in patent US8097644B2, “Indole compounds having sphingosine-1-phosphate (S1P) receptor antagonist” (Allergan, Inc., priority 2006, dated 2012).

Assays:
perfused porcine eyes = perfused porcine eyes (IOVS 45, 2263; 2004)
[1] = system: cardiac G protein-gated potassium channel IKACh; conditions: whole-cell recordings

SMILES | decrease of outflow facility (perfused porcine eyes) [%] | myocytes responding to acetylcholine in which an inwardly rectifying potassium current was evoked [1] [%]
CCCCCCCCCCCCC/C=C/[C@@H](O)[C@@H](N)COP(=O)(O)O [Example S1P, Sphingosine-1-Phosphate] | > 30 | –
CCCCCCCCc1ccc(CC[C@](N)(CO)COP(=O)(O)O)cc1 [FTY720-P] | – | ~90
